The record followed here is ChEMBL document CHEMBL4334527, “Proline-Based Allosteric Inhibitors of Zika and Dengue Virus NS2B/NS3 Proteases” (J Med Chem, 2019).

SMILES strings stand for the structures. pIC50: −log10 of the molar value. The source made the active and inactive calls. No cut-off for these calls is given here.

Data set [1] is described as follows: Drug metabolism in rat liver microsomes assessed as formation of (R)-N-(5,6-Dimethoxybenzo[d]thiazol-2-yl)-1-((4-(hydroxymethyl) phenyl) sulfonyl)pyrrolidine-2-carboxamide in presence of NADPH generating system by LC-MS/MS analysis. In kind it is ADME, Microsome. On the technique in general: Microsomes from liver hold many membrane-bound enzymes, among them those of drug oxidation.

Data set [2] deals with Zika virus. The experiment in a line: Antiviral activity against Zika virus French Polynesia infected in human A549 cells assessed as reduction in viral RNA at 5 uM measured after 24 to 72 hrs post infection by RT-qPCR analysis. The data set is classed as functional, organism-based. For orientation: Real-time PCR tracks product formation cycle by cycle.
Data set [3] is described as follows: Drug metabolism in rat liver microsomes assessed as formation of (S)-N-(5,6-Dimethoxybenzo[d]thiazol-2-yl)-1-((4-(hydroxymethyl) phenyl) sulfonyl)pyrrolidine-2-carboxamide in presence of NADPH generating system by LC-MS/MS analysis. In kind it is ADME, Microsome.
Another data set has as its system A549. Nature of the data set: Cytotoxicity against human A549 cells assessed as reduction in cell viability up to 5 uM by Presto blue cell viability reagent based assay.
Data set [4] in a line: Drug metabolism in rat liver microsomes assessed as formation of (S)-1-Benzoyl-N-(5,6-dihydroxybenzo[d]thiazol-2-yl)pyrrolidine-2-carboxamide in presence of NADPH generating system by LC-MS/MS analysis. In kind it is ADME, Microsome.
The test system of data set [5] is Zika virus. The experiment in a line: Antiviral activity against Zika virus infected in African green monkey Vero cells assessed as suppression of viral replication at 10 uM pre-incubated with cells for 1 hr before viral infection and measured after 4 days by RT-qPCR analysis. The data set is classed as functional, organism-based.
Data set [6] is described as follows: Drug metabolism in rat liver microsomes assessed as formation of (R)-N-(5,6-Dihydroxybenzo[d]thiazol-2-yl)-1-tosylpyrrolidine-2-carboxamide in presence of NADPH generating system by LC-MS/MS analysis. In kind it is ADME, Microsome.
Data set [7] relates to Zika virus. Nature of the data set: Antiviral activity against Zika virus Uganda infected in human A549 cells assessed as reduction in viral RNA at 5 uM measured after 24 to 72 hrs post infection by RT-qPCR analysis. The data set is classed as functional, organism-based.
A short description of data set [8]: Permeability in human C2BBe1 cells at 10 uM incubated for 3 hrs by LC-MS analysis relative to control. The data set is classed as ADME, cell-based. The following applies: c2bbe1, 3 h.
Data set [9] concerns dengue virus type 2. Nature of the data set: Antiviral activity against Dengue virus 2 infected in African green monkey Vero cells assessed as suppression of viral replication at 10 uM pre-incubated with cells for 1 hr before viral infection and measured after 4 days by RT-qPCR analysis. In kind it is functional, organism-based.
In data set [10] the test system is dengue virus type 2. Nature of the data set: Inhibition of N-terminal hexa-histidine tagged Dengue virus 2 NS2B/NS3 protease I30A/L31A mutant expressed in Escherichia coli BL21-Gold (DE3) at 20 uM using fluorogenic AMC-substituted peptide boc-GRR-7-amino-4-methylcoumarin measured every 30 secs for 10 mins by fluorometric assay relative to control.
For data set [11], the system named is Zika virus. Nature of the data set: Antiviral activity against Zika virus French Polynesia infected in African green monkey Vero cells assessed as reduction in plaque forming units at 5 uM measured after 96 hrs by crystal violet staining based assay. In kind it is functional, organism-based.
For data set [12], the system named is Zika virus. Nature of the data set: Antiviral activity against Zika virus Uganda infected in African green monkey Vero cells assessed as reduction in plaque forming units at 5 uM measured after 96 hrs by crystal violet staining based assay. In kind it is functional, organism-based.
Data set [13] deals with Zika virus. The experiment in a line: Antiviral activity against Zika virus infected in human A549 cells assessed as induction of redistribution of the ZIKV Env protein from ER to cytoplasm at 0.5 uM by confocal scanning microscopy. The data set is classed as functional, organism-based.
The target in data set [14] is Nonstructural protein 3 (Zika virus) (UniProt A0A024AXB9). Nature of the data set: Inhibition of N-terminal hexa-histidine tagged Zika virus NS2B/NS3 protease expressed in Escherichia coli BL21-Gold (DE3) at 20 uM using fluorogenic AMC-substituted peptide boc-GRR-7-amino-4-methylcoumarin measured every 30 secs for 10 mins by fluorometric assay relative to control.

A short description of data set [15]: Inhibition of N-terminal hexa-histidine tagged Dengue virus 2 NS2B/NS3 protease I30A/L31A/T118C mutant expressed in Escherichia coli BL21-Gold (DE3) in presence of N-benzylmaleimide using fluorogenic AMC-substituted peptide boc-GRR-7-amino-4-methylcoumarin measured every 30 secs for 10 mins by fluorometric assay. On the set-up: species or system dengue virus type 2.

Data set [16] in a line: Inhibition of N-terminal hexa-histidine tagged Dengue virus 2 NS2B/NS3 protease I30A/L31A/T122C mutant expressed in Escherichia coli BL21-Gold (DE3) using fluorogenic AMC-substituted peptide boc-GRR-7-amino-4-methylcoumarin measured every 30 secs for 10 mins by fluorometric assay. Details: species or system dengue virus type 2.
The target in data set [17] is T1, Nonstructural protein 3 (Zika virus, UniProt A0A024AXB9). The experiment in a line: Inhibition of N-terminal hexa-histidine tagged Zika virus NS2B/NS3 protease expressed in Escherichia coli BL21-Gold (DE3) using fluorogenic AMC-substituted peptide boc-GRR-7-amino-4-methylcoumarin measured every 30 secs for 10 mins by fluorometric assay.
A short description of data set [18]: Inhibition of N-terminal hexa-histidine tagged Dengue virus 2 NS2B/NS3 protease I30A/L31A/T122C mutant expressed in Escherichia coli BL21-Gold (DE3) in presence of N-benzylmaleimide using fluorogenic AMC-substituted peptide boc-GRR-7-amino-4-methylcoumarin measured every 30 secs for 10 mins by fluorometric assay. On the set-up: species or system dengue virus type 2.

Data set [19] in a line: Inhibition of N-terminal hexa-histidine tagged Dengue virus 2 NS2B/NS3 protease I30A/L31A/T120C mutant expressed in Escherichia coli BL21-Gold (DE3) using fluorogenic AMC-substituted peptide boc-GRR-7-amino-4-methylcoumarin measured every 30 secs for 10 mins by fluorometric assay. On the set-up: species or system dengue virus type 2.
Data set [20] concerns the target T1, Nonstructural protein 3. Nature of the data set: Inhibition of Zika virus NS2B/NS3 protease.
Data set [21] in a line: Inhibition of N-terminal hexa-histidine tagged Dengue virus 2 NS2B/NS3 protease I30A/L31A/T120C mutant expressed in Escherichia coli BL21-Gold (DE3) in presence of N-ethylmaleimide using fluorogenic AMC-substituted peptide boc-GRR-7-amino-4-methylcoumarin measured every 30 secs for 10 mins by fluorometric assay. Details: species or system dengue virus type 2.
Data set [22] is described as follows: Inhibition of N-terminal hexa-histidine tagged Dengue virus 2 NS2B/NS3 protease I30A/L31A/T122C mutant expressed in Escherichia coli BL21-Gold (DE3) in presence of N-ethylmaleimide using fluorogenic AMC-substituted peptide boc-GRR-7-amino-4-methylcoumarin measured every 30 secs for 10 mins by fluorometric assay. On the set-up: species or system dengue virus type 2.

Data set [23] can be described thus: Inhibition of N-terminal hexa-histidine tagged Dengue virus 2 NS2B/NS3 protease I30A/L31A/T118C mutant expressed in Escherichia coli BL21-Gold (DE3) using fluorogenic AMC-substituted peptide boc-GRR-7-amino-4-methylcoumarin measured every 30 secs for 10 mins by fluorometric assay. Details: species or system dengue virus type 2.
Data set [24] can be described thus: Inhibition of N-terminal hexa-histidine tagged Dengue virus 2 NS2B/NS3 protease I30A/L31A mutant expressed in Escherichia coli BL21-Gold (DE3) in presence of N-ethylmaleimide using fluorogenic AMC-substituted peptide boc-GRR-7-amino-4-methylcoumarin measured every 30 secs for 10 mins by fluorometric assay. On the set-up: species or system dengue virus type 2.

The nature of data set [25]: Inhibition of N-terminal hexa-histidine tagged Dengue virus 2 NS2B/NS3 protease I30A/L31A mutant expressed in Escherichia coli BL21-Gold (DE3) using fluorogenic AMC-substituted peptide boc-GRR-7-amino-4-methylcoumarin measured every 30 secs for 10 mins by fluorometric assay. On the set-up: species or system dengue virus type 2.
Data set [26] is described as follows: Inhibition of N-terminal hexa-histidine tagged Dengue virus 2 NS2B/NS3 protease I30A/L31A/T120C mutant expressed in Escherichia coli BL21-Gold (DE3) in presence of N-benzylmaleimide using fluorogenic AMC-substituted peptide boc-GRR-7-amino-4-methylcoumarin measured every 30 secs for 10 mins by fluorometric assay. Details: species or system dengue virus type 2.

Data set [27] in a line: Inhibition of N-terminal hexa-histidine tagged Dengue virus 2 NS2B/NS3 protease I30A/L31A mutant expressed in Escherichia coli BL21-Gold (DE3) in presence of N-benzylmaleimide using fluorogenic AMC-substituted peptide boc-GRR-7-amino-4-methylcoumarin measured every 30 secs for 10 mins by fluorometric assay. Details: species or system dengue virus type 2.
The target in data set [28] is T1, Nonstructural protein 3. Nature of the data set: Non-competitive inhibition of N-terminal hexa-histidine tagged Zika virus NS2B/NS3 protease expressed in Escherichia coli BL21-Gold (DE3) using 50 to 200 uM fluorogenic AMC-substituted peptide boc-GRR-7-amino-4-methylcoumarin measured every 30 secs for 10 mins by fluorometric assay based Dixon plot analysis.

T1 sequence (A0A024AXB9 whole entry): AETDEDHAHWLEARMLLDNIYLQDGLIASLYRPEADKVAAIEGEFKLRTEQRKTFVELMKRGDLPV
Sequence of Nonstructural protein 3 (Zika virus) (A0A024AXB9 as listed by the source): as the sequence (A0A024AXB9 whole entry) above

Consider `COc1cc2nc(NC(=O)[C@H]3CCCN3S(=O)(=O)c3ccc(C)cc3)sc2cc1OC`, for which the Drug metabolism entry in data set [1], in [3], in [4] and in [6] was “Metabolite_Detected” throughout. Further, the outcome in the data set on Zika virus [2], in the data set on Zika virus [5] and with Zika virus [7] was inactive. Also, the Activity result in the data set with A549 was “Non-Toxic”. Also, the permeability in data set [8] was 91%. The result in the data set with dengue virus type 2 [9] was Active.

Take `COc1ccc2cc(Oc3ccccc3C(=O)Nc3nc4cc(OC)c(OC)cc4s3)ccc2c1`: the result in the data set with Zika virus [2], in the data set with Zika virus [11], with Zika virus [12], in the data set with Zika virus [13] and with Zika virus [7] was Active. For the same molecule, in the data set with A549, the Activity result is on record as “Non-Toxic”. In addition, the outcome with Zika virus [5] was inactive. The inhibition entry (in the data set with dengue virus type 2 [10]; in data set [14]) was “inactive” in each case.

In general, pIC50 refers to the negative decadic logarithm of the IC50, by convention in mol/L. Regarding `O=C(Nc1nc2cc(O)c(O)cc2s1)c1ccccc1Oc1ccc2cc(O)ccc2c1`, the pIC50 in data set [15] is 5.15; in [16] it was 5.57; on Nonstructural protein 3 [17], 5.85; in [18], 4.80; in [19], 5.71; against Nonstructural protein 3 [20] it was 5.85. In addition, the negative logarithm of the IC50 (pIC50) in data set [21] was 5.07; in [22], 4.85; in data set [23], 6.00; in data set [24], 5.39; in data set [25], 5.37 to 5.38; in [26], 4.90. Besides, the pIC50 in data set [27] was 5.30. Further, the result with Zika virus [2], in the data set with Zika virus [5], in the data set on Zika virus [13] and in the data set on Zika virus [7] was inactive. In addition, in the data set with A549, the Activity result is “Non-Toxic”.

On to `Cc1ccc(S(=O)(=O)Nc2ccccc2C(=O)Nc2nc3cc(O)c(O)cc3s2)cc1`, for which the pIC50 on Nonstructural protein 3 [17] is 5.19; at Nonstructural protein 3 [28], 5.27; in data set [25] it was 4.82.
